Where “and” joins values, the source holds several entries; their conditions need not be identical. Equal entries are not always repeated. Entries after “also recorded” stand apart in the source; their conditions may differ.
Assays:
[1] = GSNO thermal decomposition via UV-Vis absorption spectroscopy; format: physicochemical; details: for stabilization effect on GSNO (remaining GSNO after 48 h): 2-day experiment, 0.05 M GSNO in 0.05 M PB with 0.1 M CD derivative, dark, 37° C.; for order of enhancement of GSNO stability (reduced decomposition reactivity) by the host CD: 0.1 M GSNO solution containing 0.1 M CD, pH 7.4, 37° C.
Description: GSNO was synthesized by nitrosation of reduced L-glutathione in acidified nitrite as previously reported.^52 After collecting GSNO precipitates and washing them using cold water and acetone, GSNO powder was vacuum dried for 4 h and stored at −20° C. GSNO powders were dissolved in phosphate buffer (PB) containing the same mole of Na2HPO4 before the pH adjustment. For example, the formal concentration of Na2HPO4 is 0.1 M when the GSNO concentration is 0.1 M. One hundred μM EDTA was always added to each solution before the solution pH was finally adjusted to 7.4 via NaOH. EDTA is a chelating agent to mask Cu^2+, a S-nitrosothiol catalyst that may exist in solvents and chemicals as an impurity.^53 For solutions with reactive agents, BSA, ascorbic acid, or cysteine was added before the pH adjustment. To prepare GSNO-CD solutions, appropriate amounts of CD powders were dissolved into the GSNO solutions prior to the pH adjustment.
Aqueous GSNO solutions were contained in 1.5 mL disposable polystyrene cuvettes. The cuvette was caped and further sealed with parafilm. The concentrations of GSNO during storage at 37° C. or 25° C. in the dark were monitored by a UV-vis spectrophotometer (Go Direct® Fluorescence/UV-VIS Spectrophotometer) at a wavelength of 545 nm. A 4 W LED white light was used as the light source for the photodecomposition experiment at room temperature. The distance between the light source and the cuvettes was approximately 10 cm. All GSNO decomposition experiments were triplicated, and the GSNO concentration was expressed as mean±standard deviation.

fibroblast L929 cells = assay: Cytotoxicity test (MTS assay) of lock-solution-filled silicone tubes; format: cell-based, mouse; details: 24-h incubation of L929 cells with silicone tubes filled with the lock solution
Description: L929 murine fibroblast cells were suspended in complete media (DMEM with 1% penicillin/streptomycin and 10% FBS) before being seeded in a 24-well plate at a concentration of 5×10^5 cells per well. After 24 h of incubation, the attached cells in each well were incubated in fresh media containing a sterilized 1-cm silicone tube (HelixMark® 60-011-07) filled with a lock solution with buffer, GSNO, or GSNO-αCD and with both ends sealed. MTS assays were performed following the manufacturer's procedure after an additional 24-h incubation. Absorbance at 490 nm was measured by a Cytation 3 imaging plate reader (Biotek).

[2] = in water; cited from earlier work

| Compound | stabilization effect on GSNO (remaining GSNO after 48 h) [1] | order of enhancement of GSNO stability (reduced decomposition reactivity) by the host CD [1] | further results |
| --- | --- | --- | --- |
| 2-hydroxypropyl alpha cyclodextrin [2-hydroxypropyl αCD] | significant stabilization effect | – | – |
| CC(O)COC[C@H]1O[C@@H]2O[C@H]3[C@H](O)[C@@H](O)[C@@H](O[C@H]4[C@H](O)[C@@H](O)[C@@H](O[C@H]5[C@H](O)[C@@H](O)[C@@H](O[C@H]6[C@H](O)[C@@H](O)[C@@H](O[C@H]7[C@H](O)[C@@H](O)[C@@H](O[C@H]8[C@H](O)[C@@H](O)[C@@H](O[C@H]1[C@H](O)[C@H]2O)O[C@@H]8COCC(C)O)O[C@@H]7COCC(C)O)O[C@@H]6COCC(C)O)O[C@@H]5COCC(C)O)O[C@@H]4COCC(C)O)O[C@@H]3COCC(C)O (stereo partly drawn) [HP βCD, 2-hydroxypropyl βCD] | – | αCD>γCD>HP βCD | order of enhancement of GSNO stability (reduced decomposition reactivity) by the host CD ([1]; listed as hydroxypropyl βCD): αCD>γCD>hydroxypropyl βCD |
| OC[C@H]1O[C@@H]2O[C@H]3[C@H](O)[C@@H](O)[C@@H](O[C@H]4[C@H](O)[C@@H](O)[C@@H](O[C@H]5[C@H](O)[C@@H](O)[C@@H](O[C@H]6[C@H](O)[C@@H](O)[C@@H](O[C@H]7[C@H](O)[C@@H](O)[C@@H](O[C@H]1[C@H](O)[C@H]2O)O[C@@H]7CO)O[C@@H]6CO)O[C@@H]5CO)O[C@@H]4CO)O[C@@H]3CO [αCD, alpha cyclodextrin] | best | αCD>γCD>hydroxypropyl βCD; also recorded: αCD>γCD>HP βCD | cytotoxicity / cell viability (MTS) (fibroblast L929 cells): no difference in the cell viability |
| methyl alpha cyclodextrin [methyl αCD] | significant stabilization effect | – | – |
| OC[C@H]1O[C@@H]2O[C@H]3[C@H](O)[C@@H](O)[C@@H](O[C@H]4[C@H](O)[C@@H](O)[C@@H](O[C@H]5[C@H](O)[C@@H](O)[C@@H](O[C@H]6[C@H](O)[C@@H](O)[C@@H](O[C@H]7[C@H](O)[C@@H](O)[C@@H](O[C@H]8[C@H](O)[C@@H](O)[C@@H](O[C@H]9[C@H](O)[C@@H](O)[C@@H](O[C@H]1[C@H](O)[C@H]2O)O[C@@H]9CO)O[C@@H]8CO)O[C@@H]7CO)O[C@@H]6CO)O[C@@H]5CO)O[C@@H]4CO)O[C@@H]3CO [γCD, gamma cyclodextrin] | – | αCD>γCD>hydroxypropyl βCD; also recorded: αCD>γCD>HP βCD | – |
| CC(=O)N[C@H](C(=O)O)C(C)(C)SN=O (racemic) [S-Nitroso-N-acetylpenicillamine] | – | – | aqueous solubility [2]: 2.1 mg/mL and < 0.01 M |
